Experimental data published in patent US9308183B2, “Therapy for hyperexcitability disorders” (UCB PHARMA GMBH, priority 2006, dated 2016).
Where two headings read alike, the source gives them in different places.

Columns and labels:
[1] = tested on: Sodium channels in mouse neuroblastoma N1E-115 cells; assay: Sodium current fast and slow inactivation in neuroblastoma cells (holding potential/prepulse protocols); assay type: cell-based; details: for current when the holding potential was −60 mV: 10 ms test pulse to 0 mV; for fraction available after 500 ms hyperpolarizing pulse to −100 mV, compared to control values: holding potential −60 mV; for % of channels in the slow inactivated state: held at −80 mV, 10 s to −10 mV, 1.5 s recovery, VEH 27%
[2] = tested on: rat hippocampal slice cultures; assay type: cell-based; details: for reduction of overall damage: LDH release 24 h after Glut
[3] = tested on: TTX-resistant sodium currents in rat dorsal root ganglia; assay: Slow inactivation of TTX-resistant sodium current in dorsal root ganglia; assay type: cell-based; details: 100 μM
[4] = tested on: sodium channels; assay type: cell-based; details: 100 μM
[5] = tested on: 129SVEV mice; assay: Stress-induced hyperthermia (SIH) test, animal model for stress-induced anxiety; assay type: in vivo, mouse
Protocol: The room temperature was maintained between 20 and 23° C. with a relative humidity maintained between 30% and 70%.
On the day prior to testing, the mice were brought to the experimental room one hour before scheduled lights out and singly housed overnight with food and water ad libitum. […] The probe remained inside the animal for approximately 5 seconds or until body temperature reached stability. This temperature was recorded as the baseline rectal temperature (T1). […] Before each insertion, the rectal probe was cleaned with an alcohol pad and lubricated with sterile K-Y jelly.

[6] = tested on: voltage-gated Na+ channels; details: cited from earlier work
[7] = tested on: sodium channels in rat cortical neurons, NIE-115 cells and Xenopus oocytes; assay: Effects upon firing, synaptic transmission and sodium channels in rat cortical neurons, NIE-115 cells and Xenopus oocytes; assay type: cell-based
[8] = target: T1, rat type II sodium channel alpha subunit (Nav1.2) (Rattus norvegicus, UniProt P04775); assay: Sodium currents in Xenopus oocytes expressing sodium channel alpha subunits; assay type: cell-based
T1 construct: expressed in transfected cells; host or cells: Xenopus oocytes
T1 sequence (P04775 whole entry): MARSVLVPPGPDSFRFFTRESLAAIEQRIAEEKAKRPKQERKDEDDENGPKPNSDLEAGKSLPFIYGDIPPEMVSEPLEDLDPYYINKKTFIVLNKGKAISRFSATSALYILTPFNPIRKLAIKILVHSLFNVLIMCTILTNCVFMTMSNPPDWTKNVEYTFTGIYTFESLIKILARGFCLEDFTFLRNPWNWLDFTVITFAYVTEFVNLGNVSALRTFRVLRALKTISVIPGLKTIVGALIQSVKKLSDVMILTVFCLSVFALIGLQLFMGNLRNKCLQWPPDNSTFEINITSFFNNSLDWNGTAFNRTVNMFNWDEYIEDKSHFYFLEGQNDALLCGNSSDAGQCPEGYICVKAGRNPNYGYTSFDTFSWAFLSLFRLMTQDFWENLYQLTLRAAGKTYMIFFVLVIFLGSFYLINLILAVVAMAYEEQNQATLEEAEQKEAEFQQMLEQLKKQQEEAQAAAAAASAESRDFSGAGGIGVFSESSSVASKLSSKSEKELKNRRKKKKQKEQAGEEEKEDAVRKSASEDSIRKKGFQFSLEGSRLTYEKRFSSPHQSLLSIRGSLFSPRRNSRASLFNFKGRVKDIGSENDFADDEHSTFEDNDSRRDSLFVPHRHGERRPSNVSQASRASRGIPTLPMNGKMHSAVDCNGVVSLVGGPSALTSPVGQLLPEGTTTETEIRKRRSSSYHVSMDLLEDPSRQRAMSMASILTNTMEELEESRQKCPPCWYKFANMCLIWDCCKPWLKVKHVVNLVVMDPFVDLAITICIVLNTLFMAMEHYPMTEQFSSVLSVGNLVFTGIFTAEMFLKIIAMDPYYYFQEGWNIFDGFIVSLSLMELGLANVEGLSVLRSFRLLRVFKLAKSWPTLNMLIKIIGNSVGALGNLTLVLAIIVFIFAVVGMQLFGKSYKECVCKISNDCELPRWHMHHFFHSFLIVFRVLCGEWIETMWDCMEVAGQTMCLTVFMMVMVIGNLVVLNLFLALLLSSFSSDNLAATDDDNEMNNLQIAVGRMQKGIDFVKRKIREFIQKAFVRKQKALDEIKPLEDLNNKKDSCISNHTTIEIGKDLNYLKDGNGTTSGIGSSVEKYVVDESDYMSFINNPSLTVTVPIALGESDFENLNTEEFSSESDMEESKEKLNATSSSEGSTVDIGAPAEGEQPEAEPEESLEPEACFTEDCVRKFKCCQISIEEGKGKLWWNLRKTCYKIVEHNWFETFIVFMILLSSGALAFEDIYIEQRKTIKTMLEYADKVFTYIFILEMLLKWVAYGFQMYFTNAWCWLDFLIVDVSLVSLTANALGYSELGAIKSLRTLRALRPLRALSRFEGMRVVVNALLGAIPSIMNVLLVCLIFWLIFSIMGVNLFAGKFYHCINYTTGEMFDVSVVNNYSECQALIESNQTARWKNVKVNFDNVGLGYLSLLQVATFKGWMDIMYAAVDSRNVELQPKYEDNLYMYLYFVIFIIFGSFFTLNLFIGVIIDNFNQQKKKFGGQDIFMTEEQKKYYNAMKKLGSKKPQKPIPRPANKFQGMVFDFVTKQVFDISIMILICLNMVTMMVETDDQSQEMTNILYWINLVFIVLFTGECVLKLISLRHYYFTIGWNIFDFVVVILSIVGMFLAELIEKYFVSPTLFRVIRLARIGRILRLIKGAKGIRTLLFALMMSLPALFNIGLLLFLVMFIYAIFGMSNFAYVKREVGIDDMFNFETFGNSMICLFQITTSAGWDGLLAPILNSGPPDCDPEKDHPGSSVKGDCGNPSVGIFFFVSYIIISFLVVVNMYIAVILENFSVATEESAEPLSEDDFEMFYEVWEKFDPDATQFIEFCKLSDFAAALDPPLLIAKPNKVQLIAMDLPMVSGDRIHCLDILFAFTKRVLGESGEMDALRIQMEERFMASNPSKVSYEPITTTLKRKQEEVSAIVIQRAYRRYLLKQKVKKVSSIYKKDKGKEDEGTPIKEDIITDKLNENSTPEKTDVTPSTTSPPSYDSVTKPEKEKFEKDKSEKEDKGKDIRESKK

[9] = tested on: rat hippocampal slice cultures; assay type: cell-based
[10] = 10 μM, 15 mM glutamate for 24 h

Nc1nnc(-c2cccc(Cl)c2Cl)c(N)n1 [lamotrigine, reference compound]
current when the holding potential was −60 mV ([1]; 100 μM): reduction in current | fraction available after 500 ms hyperpolarizing pulse to −100 mV, compared to control values ([1]; 100 μM): 0.88±0.06

COC[C@@H](NC(C)=O)C(=O)NCc1ccccc1 [lacosamide, (R)-2-acetamido-N-benzyl-3-methoxy-propionamide]
reduction of overall damage ([2]; 1, 10 and 100 μM): 30-40% | slow inactivation of TTX-resistant sodium currents [3]: markedly increased | V50 for slow inactivation ([1]; 32 μM and 100 μM): shift of the V50 for slow inactivation to more negative potentials | % of channels in the slow inactivated state ([1]; 32 μM): 37% | conditioning potential of first significant change in channel availability ([1]; 100 μM): −80 mV | reduction of sodium channel availability that resulted from entry into the slow inactivated state ([1]; 100 μM): more than doubled | current when the holding potential was −60 mV ([1]; 100 μM): reduction in current | inhibition after hyperpolarizing prepulse (removal of fast inactivation) ([1]; 100 μM, 500 ms pulse to −100 mV): not altered | % of channels in the slow inactivated state ([1]; 100 μM): 50% | % of channels in the slow inactivated state ([1]; 320 μM): 62% | slow inactivation voltage curves ([1]; concentration dependent): shifted the slow inactivation voltage curves to more hyperpolarized membrane potentials | maximal fraction of current made unavailable by depolarisation ([1]; conditioning potential −10 mV, CONTROL 0.70±0.02): 0.41±0.04 | time constant for entry into slow inactivation ([1]; in the presence of the drug, physiological 12.0 s): 4.8 s | fraction of sodium channels slowly inactivated by a 10 s depolarizing pulse [4]: significantly increased | half-life for channel recovery ([4]; after 10 s depolarizing pulse): not significantly changed | effect on SIH compared to saline ([5]; 3 mg/kg i.p. 60 min prior to testing): significantly attenuated | effect on SIH compared to saline ([5]; 10 mg/kg i.p. 60 min prior to testing): significantly attenuated | effect on SIH compared to saline ([5]; 30 mg/kg i.p. 60 min prior to testing): No significant effects | fast inactivation gating of voltage-gated Na+ channels [6]: does not exert its effects on neuronal excitability by affecting fast inactivation gating | frequency of miniature excitatory post-synaptic potentials [7]: not reduced | prolonged sustained repetitive firing on action potentials [7]: inhibits | rate of sodium channel fast inactivation [7]: does not change | resting conductances [7]: no effect | slow prolonged bursting in cortical neurons [7]: inhibits | steady state fast inactivation voltage curves [7]: does not shift | sustained repetitive firing [7]: did not block | synaptic transmission under normal physiologic conditions [7]: did not modulate | action potential firing evoked by brief depolarising steps or ramps ([7]; initial studies): very limited effect | rate of synaptic traffic in cultured neurons ([7]; stereoselective and concentration dependent): attenuates | slow inactivation voltage curve ([8]; 100 μM, Xenopus oocytes, Nav1.2): pronounced shift | inhibition of sodium currents ([8]; oocyte expression system): rapid and profoundly voltage dependent inhibition | reduction of Glut-induced necrosis (neuronal damage) [9]: 40-50%

NC1=N[C@H](O)[C@H]2[C@H]3O[C@]4(O)O[C@@H]([C@@H](O)[C@@]2(N1)[C@@H]4O)[C@]3(O)CO [Tetrodotoxin]
overall damage (LDH release) 24 h after Glut [2]: protective effect | reduction of general damage [2]: 20-40% | neuronal damage (PI uptake, CA1-CA3) 24 h after Glut [9]: neuroprotective effect | reduction of neuronal damage [9]: ~50%

O=C1NC(=O)C(c2ccccc2)(c2ccccc2)N1 [phenytoin, reference compound]
current when the holding potential was −60 mV ([1]; 100 μM): reduction in current | fraction available after 500 ms hyperpolarizing pulse to −100 mV, compared to control values ([1]; 100 μM): 0.99±0.05

CC(C)C[C@H](CN)CC(=O)O [pregabalin, reference compound]
effect on SIH compared to saline ([5]; mouse, in vivo, ip): No significant effects

C[C@]12N[C@H](Cc3ccccc31)c1ccccc12 [MK-801]
overall damage (LDH release) 24 h after Glut [2, 10]: significant protection | reduction of overall damage ([2]; 10 μM): ~50% | neuronal damage (PI uptake, CA1-CA3) 24 h after Glut [9, 10]: significant protection | reduction of neuronal damage ([9]; 10 μM, PI uptake 24 h after Glut): ~80%

NC(=O)N1c2ccccc2C=Cc2ccccc21 [carbamazepine, reference compound]
current when the holding potential was −60 mV ([1]; 100 μM): reduction in current | fraction available after 500 ms hyperpolarizing pulse to −100 mV, compared to control values ([1]; 100 μM): 0.94±0.19
